Assays:
[1] = system: 769P; assay: MTT growth inhibition, 769P; format: cell-based, human; conditions: Homo sapiens, 769P cells, 72 hrs
Procedure: (§1) The growth inhibitory effects of avicin D and oxetane derivative were measured using the MTT [3-(4,5-dimethylthiazol-2-yl)-2,5-diphenyl tetrazolium bromide] reduction assay as described in Haridas et al. (2001). Cells were cultured with varying concentrations of avicin D or oxetane in 96-well plates for 72 hrs at 37° C. At the end of 72 hrs, cells were stained with MTT for 2 hrs and then incubated with lysis buffer (20% SDS in 50% N,N-dimethylformamide) for another 6 hrs. Optical density at 570 nm was used as a measure of cell viability.
(§2) The cell lines 769P, A498, CAKI-1, and CAKI-2 are derived from primary human renal-cell cancers (RCC). A549 is a human lung adenocarcinoma epithelial cell line. B16F10 is a mouse melanoma cell line. BT474, BT 474 M1, BT549, MCF7, […], and ZR751 are breast cancer cell lines. CCRF-CEM, Jurkat, and MOLT4 are leukemia cell lines. HELA is cell line derived from cervical caner. HepG2 is a human hepatocellular liver carcinoma cell line. JeKo-1 is a mantle cell lymphoma (MCL) cell line. LnCAP is a cell line was established from a metastatic lesion of human prostatic adenocarcinoma. MM.1 and RPMI-8226 are human multiple myeloma cell lines. OVCAR3 and SKOV3 are ovarian cancer cell lines. Panc-1 is a pancreatic cancer cell line. PC3 is a prostate cancer cell line. Raji is a Burkitt's lymphoma cell line. RL is a non-Hodgkin's lymphoma cell line. […]

[2] = system: A498; assay: MTT growth inhibition, A498; format: cell-based, human; conditions: Homo sapiens, A498 cells, 72 hrs
Procedure: as §1, §2

[3] = system: A549; assay: MTT growth inhibition, A549; format: cell-based, human; conditions: Homo sapiens, A549 cells, 72 hrs
Procedure: as §1, §2

[4] = system: B16F10; assay: MTT growth inhibition, B16F10; format: cell-based, mouse; conditions: Mus musculus, B16-F10, B16F10 cells, 72 hrs
Procedure: as §1, §2

[5] = system: BT474; assay: MTT growth inhibition, BT474; format: cell-based; conditions: Homo sapiens, BT-474, BT474 cells, 72 hrs
Procedure: as §1, §2

[6] = system: BT474 M1; assay: MTT growth inhibition, BT474 M1; format: cell-based; conditions: Homo sapiens, BT474M1, BT474 M1 cells, 72 hrs
Procedure: as §1, §2

[7] = system: BT549; assay: MTT growth inhibition, BT549; format: cell-based; conditions: Homo sapiens, BT-549, BT549 cells, 72 hrs
Procedure: as §1, §2

[8] = system: CAKI-1; assay: MTT growth inhibition, CAKI-1; format: cell-based, human; conditions: Homo sapiens, CAKI-1 cells, 72 hrs
Procedure: as §1, §2

[9] = system: CAKI-2; assay: MTT growth inhibition, CAKI-2; format: cell-based, human; conditions: Homo sapiens, CAKI-2 cells, 72 hrs
Procedure: as §1, §2

[10] = system: CCRF-CEM; assay: MTT growth inhibition, CCRF-CEM; format: cell-based; conditions: Homo sapiens, CCRF-CEM cells, 72 hrs
Procedure: as §1, §2

[11] = system: Hela; assay: MTT growth inhibition, Hela; format: cell-based; conditions: Homo sapiens, Hela cells, 72 hrs
Procedure: as §1, §2

[12] = system: HepG2; assay: MTT growth inhibition, HepG2; format: cell-based, human; conditions: Homo sapiens, HepG2 cells, 72 hrs
Procedure: as §1, §2

[13] = system: JEKO-1; assay: MTT growth inhibition, JEKO-1; format: cell-based; conditions: Homo sapiens, JEKO-1 cells, 72 hrs
Procedure: as §1, §2

[14] = system: Jurkat; assay: MTT growth inhibition, Jurkat; format: cell-based, human; conditions: Homo sapiens, Jurkat cells, 72 hrs (Table 5)
Procedure: as §1, §2

[15] = system: LnCAP; assay: MTT growth inhibition, LnCAP; format: cell-based, human; conditions: Homo sapiens, LnCAP cells, 72 hrs
Procedure: as §1, §2

[16] = system: MCF7; assay: MTT growth inhibition, MCF7; format: cell-based; conditions: Homo sapiens, MCF7 cells, 72 hrs
Procedure: as §1, §2

[17] = system: MINO; assay: MTT growth inhibition, MINO; format: cell-based; conditions: Homo sapiens, MINO cells, 72 hrs
Procedure: as §1, §2

[18] = system: MM1; assay: MTT growth inhibition, MM1; format: cell-based, human; conditions: Homo sapiens, MM1 cells, 72 hrs
Procedure: as §1, §2

[19] = system: MOLT4; assay: MTT growth inhibition, MOLT4; format: cell-based; conditions: Homo sapiens, MOLT-4, MOLT4 cells, 72 hrs
Procedure: as §1, §2

[20] = system: OVCAR3; assay: MTT growth inhibition, OVCAR3; format: cell-based; conditions: Homo sapiens, OVCAR-3, OVCAR3 cells, 72 hrs
Procedure: as §1, §2

[21] = system: Panc-1; assay: MTT growth inhibition, Panc-1; format: cell-based; conditions: Homo sapiens, Panc-1 cells, 72 hrs
Procedure: as §1, §2

[22] = system: PC3; assay: MTT growth inhibition, PC3; format: cell-based; conditions: Homo sapiens, PC-3, PC3 cells, 72 hrs
Procedure: as §1, §2

[23] = system: Raji; assay: MTT growth inhibition, Raji; format: cell-based; conditions: Homo sapiens, Raji cells, 72 hrs
Procedure: as §1, §2

[24] = system: RL; assay: MTT growth inhibition, RL; format: cell-based; conditions: Homo sapiens, RL cells, 72 hrs
Procedure: as §1, §2

[25] = system: RPMI 8226; assay: MTT growth inhibition, RPMI 8226; format: cell-based, human; conditions: Homo sapiens, RPMI 8226 cells, 72 hrs
Procedure: as §1, §2

[26] = system: SKOV3; assay: MTT growth inhibition, SKOV3; format: cell-based; conditions: Homo sapiens, SK-OV-3, SKOV3 cells, 72 hrs
Procedure: as §1, §2

[27] = system: U2OS; assay: MTT growth inhibition, U2OS; format: cell-based, human; conditions: Homo sapiens, U2OS cells, 72 hrs
Procedure: as §1, §2

[28] = system: U266; assay: MTT growth inhibition, U266; format: cell-based; conditions: Homo sapiens, U-266, U266 cells, 72 hrs
Procedure: as §1, §2

[29] = system: WSU-DLCL2; assay: MTT growth inhibition, WSU-DLCL2; format: cell-based, human; conditions: Homo sapiens, WSUDLCL2, WSU-DLCL2 cells, 72 hrs
Procedure: as §1, §2

[30] = system: ZR751; assay: MTT growth inhibition, ZR751; format: cell-based; conditions: Homo sapiens, ZR-75-1, ZR751 cells, 72 hrs
Procedure: as §1, §2

[31] = system: 3T3 L1; assay: MTT growth inhibition, 3T3 L1; format: cell-based; conditions: Mus musculus, 3T3 L1 fibroblast cells, 72 hrs
Procedure: as §1, §2

[32] = system: GM0131; assay: MTT growth inhibition, GM0131; format: cell-based; conditions: GM0131 wild type human fibroblast cells, 72 hrs
Procedure: as §1, §2

[33] = system: HEK293; assay: MTT growth inhibition, HEK293; format: cell-based, human; conditions: Homo sapiens, HEK293 cells, 72 hrs
Procedure: as §1, §2

[34] = system: HS27; assay: MTT growth inhibition, HS27; format: cell-based; conditions: HS27 human foreskin fibroblast cells, 72 hrs
Procedure: as §1, §2

[35] = system: Nrf2; assay: Nrf2 activation, ARE-driven luciferase in Hep G2 cells; format: cell-based, human; conditions: Hep G2 cells transfected with hARE-luc, luciferase activity
Procedure: Activation of Nrf2 was assessed by measuring the antioxidant response element (ARE)-mediated gene expression as described previously by Haridas et al., 2004, which is incorporated herein by reference. Briefly, ARE is a cis-acting regulatory sequence identified in the promoter region of several genes encoding phase 2 detoxification enzymes, that binds to Nrf2. Hep G2 (human hepatocarcinoma) cells were transfected with a human ARE-driven luciferase (luc) containing plasmid, hARE-luc. Following exposure to avicin D/compound 8, the luciferase activity induced in these cells was measured using a dual-luciferase assay kit (Promega) according to the manufacturer's protocol.

[36] = system: Jurkat (human T-cell leukemia) cells; assay: Reduction in cell viability, Jurkat cells (Table 6); format: cell-based; conditions: Homo sapiens, 50% reduction in cell viability
From the text: The IC50 values indicate the concentrations of avicin D/compound 8 required to induce a 50% reduction in call viability. These studies were done in Jurkat (human T-cell leukemia) cells and have been described previously in Haridas et al., 2001, which is incorporated herein by reference.

C=CC(C)(O)CCC1OCC1C(=O)O[C@@H]1C(C)O[C@@H](O[C@](C)(C=C)CC/C=C(\CO)C(=O)O[C@H]2C[C@@]3(C(=O)O[C@@H]4OC(CO)[C@@H](O)C(O)C4O[C@@H]4OC(C)[C@H](O[C@@H]5O[C@@H](CO)[C@H](O)[C@@H]5O)C(O[C@@H]5OC(CO)[C@@H](O)C(O)C5O)C4O)C(CC2(C)C)C2=CCC4[C@@]5(C)CC[C@H](O[C@@H]6OC(CO[C@@H]7OC(C)[C@H](O)C(O)C7O[C@@H]7OC[C@@H](O)C(O)C7O)[C@@H](O)C(O)C6NC(C)=O)C(C)(C)C5CC[C@@]4(C)[C@]2(C)C[C@H]3O)C(O)C1O (stereo partly drawn) [Compound 8]
IC50 [1]: 150 nM
IC50 [2]: 220 nM
IC50 [3]: 1200 nM
IC50 [4]: 140 nM
IC50 [5]: 900 nM
IC50 [6]: 700 nM
IC50 [7]: 1400 nM
IC50 [8]: 280 nM
IC50 [9]: 490 nM
IC50 [10]: 630 nM
IC50 [11]: 1870 nM
IC50 [12]: 310 nM
IC50 [13]: 160 nM
IC50 [14]: 90 nM
IC50 [15]: 190 nM
IC50 [16]: 2600 nM
IC50 [17]: 60 nM
IC50 [18]: 30 nM
IC50 [19]: 200 nM
IC50 [20]: 210 nM
IC50 [21]: 310 nM
IC50 [22]: 190 nM
IC50 [23]: 620 nM
IC50 [24]: 80 nM
IC50 [25]: 160 nM
IC50 [26]: 420 nM
IC50 [27]: 1200 nM
IC50 [28]: 80 nM
IC50 [29]: 140 nM
IC50 [30]: 340 nM
IC50 [31]: 800 nM
IC50 [32]: 12000 nM
IC50 [33]: 6800 nM
IC50 [34]: 2500 nM
Fold Nrf2 activation [35]: 0.98
IC50 [36]: 40 nM

Source: patent US9175030B2, “Derivatives of avicin D and methods of making and using thereof” (priority 2012, dated 2015)
